Measured values taken from patent US20060078629A1, “Nutritional compositions and use thereof” (priority 2003, published 2006).

Key:
[1] = slow (e.g. 20 minutes) intravenous injection, 400 mg glutathione in 20 ml saline
From the text: According to one aspect of the invention, the intravenous administration of glutathione is used to achieve the desired blood levels. […] Repeated injections may be necessary in severely ill patients.

[2] = tested on: chemically induced cancers; conditions: in vivo; cited from earlier work
[3] = tested on: DNA damage in various tissues; conditions: Food Chem Toxicol 2000, 38:15; cited from earlier work

N[C@@H](CCC(=O)N[C@@H](CS)C(=O)NCC(=O)O)C(=O)O [glutathione]
achieving the desired blood glutathione levels [1]: effective

OCc1c[nH]c2ccccc12 [Example I3C, Indole-3-carbinol]
prevention of chemically induced cancers [2]: up to 90% | decrease of DNA damage in various tissues [3]: 67-82%
